In patent US8952024B2, “Herbicidal pyrimidone derivatives” (E I du Pont de Nemours and Company, priority 2009, dated 2015):

How the values were obtained:
Format in all cases: in vivo
[1] = test system: giant foxtail (Setaria faberii); assay: Test A pre-/postemergence plant response
In short: (§1)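 Visual injury rating on a 0–100 scale (0 = no effect, 100 = complete control) was made versus untreated controls after about ten days in the greenhouse. Compounds, formulated in a non-phytotoxic solvent mix containing surfactant, were sprayed preemergence onto loam/sand soil and postemergence onto one- to two-leaf plants.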

[2] = test system: pigweed (Amaranthus retroflexus); assay: Test A pre-/postemergence plant response
In short: as §1

[3] = test system: corn (Zea mays); assay: Test A pre-/postemergence plant response; conditions: for Corn plant response rating: visual injury, 0 to 100 scale (0 no effect, 100 complete control), approx. ten days
In short: as §1

[4] = test system: morningglory (Ipomoea spp.); assay: Test A pre-/postemergence plant response
In short: as §1

[5] = test system: large crabgrass (Digitaria sanguinalis); assay: Test A pre-/postemergence plant response; conditions: for Crabgrass, Large plant response rating: visual injury, 0 to 100 scale (0 no effect, 100 complete control), approx. ten days
In short: as §1

[6] = test system: velvetleaf (Abutilon theophrasti); assay: Test A pre-/postemergence plant response
In short: as §1

[7] = test system: wheat (Triticum aestivum); assay: Test A pre-/postemergence plant response
In short: as §1

[8] = test system: barnyardgrass (Echinochloa crus-galli); assay: Test A pre-/postemergence plant response; conditions: for Barnyardgrass plant response rating: visual injury, 0 to 100 scale (0 no effect, 100 complete control), approx. ten days
In short: as §1

[9] = test system: ducksalad (Heteranthera limosa); assay: Test B flooded paddy test; conditions: for Plant response rating, Flood, Ducksalad: 250 g ai/ha, flooded paddy test, visual rating on 0 to 100 scale (0 no effect, 100 complete control) after 13 to 15 days; for Plant response rating, Ducksalad: Flood (flooded paddy test), 13 to 15 days
In short: (§2)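 Visual scores run from 0 (no effect) to 100 (complete control), assigned by comparison with controls 13 to 15 days after treatment. Test compounds went straight into water standing 3 cm above the soil, around plants at the 2-leaf stage kept in a greenhouse.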

[10] = test system: umbrella sedge (Cyperus difformis); assay: Test B flooded paddy test; conditions: for Plant response rating, Flood, Sedge, Umbrella: 250 g ai/ha, flooded paddy test, visual rating on 0 to 100 scale (0 no effect, 100 complete control) after 13 to 15 days; for Plant response rating, Sedge, Umbrella: Flood (flooded paddy test), 13 to 15 days
In short: as §2

[11] = test system: rice (Oryza sativa); assay: Test B flooded paddy test; conditions: for Plant response rating, Flood, Rice: 250 g ai/ha, flooded paddy test, visual rating on 0 to 100 scale (0 no effect, 100 complete control) after 13 to 15 days; for Plant response rating, Rice: Flood (flooded paddy test), 13 to 15 days
In short: as §2

[12] = test system: barnyardgrass (Echinochloa crus-galli); assay: Test B flooded paddy test; conditions: for Plant response rating, Flood, Barnyardgrass: 250 g ai/ha, flooded paddy test, visual rating on 0 to 100 scale (0 no effect, 100 complete control) after 13 to 15 days; for Plant response rating, Barnyardgrass: Flood (flooded paddy test), 13 to 15 days
In short: as §2

[13] = Postemergence, 125 g ai/ha, 0 to 100 scale where 0 is no effect and 100 is complete control
[14] = Postemergence, 500 g ai/ha, visual injury, 0 to 100 scale (0 no effect, 100 complete control), approx. ten days
[15] = Preemergence, 125 g ai/ha, 0 to 100 scale, 0 = no effect, 100 = complete control
[16] = Preemergence, 500 g ai/ha, 0 to 100 scale, 0 = no effect, 100 = complete control
[17] = 62 g ai/ha, scale of 0 to 100 where 0 is no effect and 100 is complete control
[18] = Postemergence, 125 g ai/ha, visual injury, 0 to 100 scale (0 no effect, 100 complete control), approx. ten days
[19] = Preemergence, 125 g ai/ha, 0 to 100 scale where 0 is no effect and 100 is complete control, approximately ten days
[20] = 125 g ai/ha, scale 0 to 100, 0 is no effect, 100 is complete control
[21] = Flood, 31 g ai/ha, scale 0 to 100 (0 no effect, 100 complete control)

## CCCCn1c(-c2cccc(C)c2)ncc(C(=O)C2=C(O)C3CCC(C3)C2=O)c1=O (stereo not shown) [Compound 232]
[1]; [13]
  Plant response rating, Foxtail, Giant: 60
[1]; [14]
  Foxtail, Giant plant response rating: 90
[1]; [15]
  Plant response rating, Foxtail, Giant: 0
[1]; [16]
  Plant response rating, Foxtail, Giant: 70
[2]; [13]
  Plant response rating, Pigweed: 70
[2]; [14]
  Pigweed plant response rating: 90
[2]; [15]
  Plant response rating, Pigweed: 0
[2]; [16]
  Plant response rating, Pigweed: 90
[3]; [13]
  Plant response rating, Corn: 10
[3]; Postemergence, 500 g ai/ha
  Corn plant response rating: 60
[3]; [15]
  Plant response rating, Corn: 0
[3]; [16]
  Plant response rating, Corn: 0
[4]; [13]
  Plant response rating, Morningglory: 100
[4]; [14]
  Morningglory plant response rating: 100
[4]; [15]
  Plant response rating, Morningglory: 0
[4]; [16]
  Plant response rating, Morningglory: 40
[5]; [13]
  Plant response rating, Crabgrass, Large: 20
[5]; Postemergence, 500 g ai/ha
  Crabgrass, Large plant response rating: 60
[5]; [15]
  Plant response rating, Crabgrass, Large: 10
[5]; [16]
  Plant response rating, Crabgrass, Large: 40
[6]; [13]
  Plant response rating, Velvetleaf: 70
[6]; [14]
  Velvetleaf plant response rating: 80
[6]; [15]
  Plant response rating, Velvetleaf: 0
[6]; [16]
  Plant response rating, Velvetleaf: 60
[7]; [13]
  Plant response rating, Wheat: 20
[7]; [14]
  Wheat plant response rating: 50
[7]; [15]
  Plant response rating, Wheat: 0
[7]; [16]
  Plant response rating, Wheat: 30
[8]; [13]
  Plant response rating, Barnyardgrass: 60
[8]; Postemergence, 500 g ai/ha
  Barnyardgrass plant response rating: 90
[8]; [15]
  Plant response rating, Barnyardgrass: 0
[8]; [16]
  Plant response rating, Barnyardgrass: 50
[9]
  Plant response rating, Flood, Ducksalad: 85
[9]; [17]
  Plant response rating, Ducksalad: 85
[10]
  Plant response rating, Flood, Sedge, Umbrella: 80
[10]; [17]
  Plant response rating, Sedge, Umbrella: 80
[11]
  Plant response rating, Flood, Rice: 0
[11]; [17]
  Plant response rating, Rice: 0
[12]
  Plant response rating, Flood, Barnyardgrass: 50
[12]; [17]
  Plant response rating, Barnyardgrass: 30

## Cc1c(F)cccc1-n1c(-c2ccccc2)ncc(C(=O)C2=C(O)C3CCC(C3)C2=O)c1=O (stereo not shown) [Compound 234]
[1]; [13]
  Plant response rating, Foxtail, Giant: 70
[1]; [14]
  Foxtail, Giant plant response rating: 90
[1]; [15]
  Plant response rating, Foxtail, Giant: 10
[1]; [16]
  Plant response rating, Foxtail, Giant: 60
[2]; [13]
  Plant response rating, Pigweed: 70
[2]; [14]
  Pigweed plant response rating: 90
[2]; [15]
  Plant response rating, Pigweed: 50
[2]; [16]
  Plant response rating, Pigweed: 60
[3]; [13]
  Plant response rating, Corn: 20
[3]; Postemergence, 500 g ai/ha
  Corn plant response rating: 50
[3]; [15]
  Plant response rating, Corn: 0
[3]; [16]
  Plant response rating, Corn: 20
[4]; [13]
  Plant response rating, Morningglory: 100
[4]; [14]
  Morningglory plant response rating: 100
[4]; [16]
  Plant response rating, Morningglory: 10
[5]; [13]
  Plant response rating, Crabgrass, Large: 40
[5]; Postemergence, 500 g ai/ha
  Crabgrass, Large plant response rating: 90
[5]; [15]
  Plant response rating, Crabgrass, Large: 60
[5]; [16]
  Plant response rating, Crabgrass, Large: 90
[6]; [13]
  Plant response rating, Velvetleaf: 100
[6]; [14]
  Velvetleaf plant response rating: 100
[6]; [15]
  Plant response rating, Velvetleaf: 30
[6]; [16]
  Plant response rating, Velvetleaf: 90
[7]; [13]
  Plant response rating, Wheat: 0
[7]; [14]
  Wheat plant response rating: 20
[7]; [15]
  Plant response rating, Wheat: 0
[7]; [16]
  Plant response rating, Wheat: 20
[8]; [13]
  Plant response rating, Barnyardgrass: 80
[8]; Postemergence, 500 g ai/ha
  Barnyardgrass plant response rating: 100
[8]; [15]
  Plant response rating, Barnyardgrass: 0
[8]; [16]
  Plant response rating, Barnyardgrass: 80
[9]
  Plant response rating, Flood, Ducksalad: 70
[9]; [17]
  Plant response rating, Ducksalad: 20
[10]
  Plant response rating, Flood, Sedge, Umbrella: 40
[10]; [17]
  Plant response rating, Sedge, Umbrella: 0
[11]
  Plant response rating, Flood, Rice: 0
[11]; [17]
  Plant response rating, Rice: 0
[12]
  Plant response rating, Flood, Barnyardgrass: 0
[12]; [17]
  Plant response rating, Barnyardgrass: 0

## O=C(C1=C(O)C2CCC(C2)C1=O)c1cnc(-c2cc(F)cc(F)c2)n(-c2ccccc2)c1=O (stereo not shown) [Compound 246]
[1]; [18]
  Plant response rating, Foxtail, Giant: 80
[1]; [14]
  Foxtail, Giant plant response rating: 100
[1]; [19]
  Plant response rating, Foxtail, Giant: 90
[1]; [16]
  Plant response rating, Foxtail, Giant: 90
[2]; [18]
  Plant response rating, Pigweed: 90
[2]; [14]
  Pigweed plant response rating: 100
[2]; [19]
  Plant response rating, Pigweed: 100
[2]; [16]
  Plant response rating, Pigweed: 100
[3]; [13]
  Plant response rating, Corn: 0
[3]; Postemergence, 500 g ai/ha
  Corn plant response rating: 90
[3]; [19]
  Plant response rating, Corn: 0
[3]; [16]
  Plant response rating, Corn: 50
[4]; [18]
  Plant response rating, Morningglory: 90
[4]; [14]
  Morningglory plant response rating: 100
[4]; [19]
  Plant response rating, Morningglory: 20
[4]; [16]
  Plant response rating, Morningglory: 60
[5]; [13]
  Plant response rating, Crabgrass, Large: 70
[5]; Postemergence, 500 g ai/ha
  Crabgrass, Large plant response rating: 100
[5]; [19]
  Plant response rating, Crabgrass, Large: 100
[5]; [16]
  Plant response rating, Crabgrass, Large: 100
[6]; [18]
  Plant response rating, Velvetleaf: 100
[6]; [14]
  Velvetleaf plant response rating: 100
[6]; [19]
  Plant response rating, Velvetleaf: 90
[6]; [16]
  Plant response rating, Velvetleaf: 100
[7]; [18]
  Plant response rating, Wheat: 0
[7]; [14]
  Wheat plant response rating: 50
[7]; [19]
  Plant response rating, Wheat: 0
[7]; [16]
  Plant response rating, Wheat: 50
[8]; [13]
  Plant response rating, Barnyardgrass: 70
[8]; Postemergence, 500 g ai/ha
  Barnyardgrass plant response rating: 100
[8]; [19]
  Plant response rating, Barnyardgrass: 10
[8]; [16]
  Plant response rating, Barnyardgrass: 100
[9]
  Plant response rating, Flood, Ducksalad: 100
[9]; [17]
  Plant response rating, Ducksalad: 100
[9]; [20]
  Plant response rating, Ducksalad: 100
[9]; [21]
  Ducksalad plant response rating: 85
[10]
  Plant response rating, Flood, Sedge, Umbrella: 100
[10]; [17]
  Plant response rating, Sedge, Umbrella: 85
[10]; [20]
  Plant response rating, Sedge, Umbrella: 100
[10]; [21]
  Sedge, Umbrella plant response rating: 0
[11]
  Plant response rating, Flood, Rice: 65
[11]; [17]
  Plant response rating, Rice: 30
[11]; [20]
  Plant response rating, Rice: 65
[11]; [21]
  Rice plant response rating: 0
[12]
  Plant response rating, Flood, Barnyardgrass: 60
[12]; [17]
  Plant response rating, Barnyardgrass: 0
[12]; [20]
  Plant response rating, Barnyardgrass: 20
[12]; [21]
  Barnyardgrass plant response rating: 0
